Data on 17 compounds can be found in US4897506A, “Isolation of alpha-l-aspartyl-l-phenylalanine methyl ester from aqueous medium” (Mitsui Toatsu Chemicals, Incorporated, priority 1987, dated 1990).

Residues, ends and D or L forms follow the SMILES beside them. Some results are limits rather than exact numbers.

Data set [1] can be described thus: Method for Testing Solubilization: time required for completely dissolving crushed α-APM sample in water. The settings on record: 26±2° C.; for time required for completely dissolving the sample (solubilization test): 250 mg crushed sample in 250 ml purified water, magnetic stirrer 350-360 rpm, stirring and standing alternated every 30 seconds; for Solubilization (min), Table 2 / Solubilization (minutes), Table 1: 250 mg in 250 ml purified water, stirring/standing every 30 seconds. Format: physicochemical. The procedure: Crushed α-APM sample (250 mg) is poured into 250 ml of purified water at 26±2° C. with stirring by a magnetic stirrer at 350- 360 rpm. Stirring and standing are alternately repeated for every 30 seconds and the time required for completely dissolving the sample is measured.

Data set [2] in a line: Hard block formation on drying. It is filed as physicochemical. Particulars: dry crystalline α-APM.
The conditions of data set [3]: crystallized by cooling without forced flow, Japanese Laid-Open Patent No. 177952/1983; cited from earlier work.
Data set [4] in a line: Solubilization of conventionally recrystallized α-APM (background). Format: physicochemical. The settings on record: 250 mg in 250 ml water, room temperature. From the text: α-APM purified by conventional recrystallization methods has the disadvantage of poor solubilization (rate of solution) in water.
Data set [5] in a line: Thermal stability in solution (diketopiperazine formation). Format: physicochemical. The settings on record: aqueous medium, temperatures higher than 70° C.
For data set [6] the following is noted: pH; cited from earlier work.

`COC(=O)[C@H](Cc1ccccc1)NC(=O)[C@@H](N)CC(=O)O` [Example 17, α-L-aspartyl-L-phenylalanine methyl ester] (H-Asp-Phe-OMe): the “time required for completely dissolving the sample (solubilization test)” value (“time required … (solubilization test)” below) in data set [1] is at most 5 min.

For the compound `COC(=O)[C@H](Cc1ccccc1)NC(=O)[C@@H](N)CC(=O)O` [Example 18, α-L-aspartyl-L-phenylalanine methyl ester] (H-Asp-Phe-OMe), the “time required … (solubilization test)” value in data set [1] is at most 5 min.

On to `COC(=O)[C@H](Cc1ccccc1)NC(=O)[C@@H](N)CC(=O)O` [Example 19, α-L-aspartyl-L-phenylalanine methyl ester] (H-Asp-Phe-OMe), for which the “Solubilization (min), Table 2” value in data set [1] is listed as 5.5 min.

In the case of `COC(=O)[C@H](Cc1ccccc1)NC(=O)[C@@H](N)CC(=O)O` [Example 20, α-L-aspartyl-L-phenylalanine methyl ester] (H-Asp-Phe-OMe), the “Solubilization (min), Table 2” value in data set [1] is listed as 5.5 min.

Regarding `COC(=O)[C@H](Cc1ccccc1)NC(=O)[C@@H](N)CC(=O)O` [Example 21, α-L-aspartyl-L-phenylalanine methyl ester] (H-Asp-Phe-OMe), the “Solubilization (min), Table 2” value in data set [1] stood at 5.5 min.

Regarding `COC(=O)[C@H](Cc1ccccc1)NC(=O)[C@@H](N)CC(=O)O` [Example 22, α-L-aspartyl-L-phenylalanine methyl ester] (H-Asp-Phe-OMe), in data set [1], the “Solubilization (min), Table 2” value came out at 5.0 min.

Regarding `COC(=O)[C@H](Cc1ccccc1)NC(=O)[C@@H](N)CC(=O)O` [Example 23, α-L-aspartyl-L-phenylalanine methyl ester] (H-Asp-Phe-OMe), in data set [1], the “time required … (solubilization test)” value is at most 5 min.

As to `COC(=O)[C@H](Cc1ccccc1)NC(=O)[C@@H](N)CC(=O)O` [compound 1, α-L-aspartyl-L-phenylalanine methyl ester, reference compound] (H-Asp-Phe-OMe), in data set [1], the “time required … (solubilization test)” value worked out at 12.5 min.

Turning to `COC(=O)[C@H](Cc1ccccc1)NC(=O)[C@@H](N)CC(=O)O` [compound 2, α-L-aspartyl-L-phenylalanine methyl ester, reference compound] (H-Asp-Phe-OMe), the “time required … (solubilization test)” value in data set [1] amounted to 11.5 min.

Consider `COC(=O)[C@H](Cc1ccccc1)NC(=O)[C@@H](N)CC(=O)O` [compound 3, α-L-aspartyl-L-phenylalanine methyl ester, reference compound] (H-Asp-Phe-OMe), for which, in data set [1], the “time required … (solubilization test)” value was 12.5 min.

In the case of `COC(=O)[C@H](Cc1ccccc1)NC(=O)[C@@H](N)CC(=O)O` [compound 4, α-L-aspartyl-L-phenylalanine methyl ester, reference compound] (H-Asp-Phe-OMe), the “time required … (solubilization test)” value in data set [1] is 13.5 min.

On to `COC(=O)[C@H](Cc1ccccc1)NC(=O)[C@@H](N)CC(=O)O` [compound 5, α-L-aspartyl-L-phenylalanine methyl ester, reference compound] (H-Asp-Phe-OMe), for which the “Solubilization (minutes), Table 1” value in data set [1] (listed as Comp. Ex. 5) was found to be 12.5 min.

Consider `COC(=O)[C@H](Cc1ccccc1)NC(=O)[C@@H](N)CC(=O)O` [compound 6, α-L-aspartyl-L-phenylalanine methyl ester, reference compound] (H-Asp-Phe-OMe), for which, in data set [1] (listed as Comp. Ex. 6), the “Solubilization (minutes), Table 1” value was determined as 13.5 min.

In the case of `COC(=O)[C@H](Cc1ccccc1)NC(=O)[C@@H](N)CC(=O)O` [compound 7, α-L-aspartyl-L-phenylalanine methyl ester, reference compound] (H-Asp-Phe-OMe), the “time required … (solubilization test)” value in data set [1] turned out to be 13.5 min.

In the case of `COC(=O)[C@H](Cc1ccccc1)NC(=O)[C@@H](N)CC(=O)O` [compound 8, α-L-aspartyl-L-phenylalanine methyl ester, reference compound] (H-Asp-Phe-OMe), the “time required … (solubilization test)” value in data set [1] came out at 12.5 min.

As for `COC(=O)[C@H](Cc1ccccc1)NC(=O)[C@@H](N)CC(=O)O` [compound 9, α-L-aspartyl-L-phenylalanine methyl ester, reference compound] (H-Asp-Phe-OMe), the “time required … (solubilization test)” value in data set [1] is 12 min.

`COC(=O)[C@H](Cc1ccccc1)NC(=O)[C@@H](N)CC(=O)O` [α-APM, α-L-aspartyl-L-phenylalanine methyl ester] (H-Asp-Phe-OMe): the “hard block formation in the dry state” value in data set [2] was “forms a hard block in the dry state”. Besides, the “solubilization compared to conventionally crystallized product” value in data set [3] was “excellent solubilization as compared to conventionally crystallized product”. Further, the “time required to dissolve completely” value in data set [4] (crushed powder recrystallized from 50 vol. % aqueous methanol, stirring and standing every 30 seconds) is given as “more than 15 minutes”. Also, in data set [4] (recrystallized from 50 vol. % aqueous methanol), the “undissolved α-APM after 5 minutes” value is given as “a significant amount of undissolved α-APM remains even after 5 minutes”. The “thermal stability in solution” value in data set [5] was “diketopiperazine compound is undesirably formed as by-product”. For the same compound, the isoelectric point in data set [6] was 5.6.
